Reference: patent publication US10758534B2 (Vertex Pharmaceuticals Incorporated, priority 2014, dated 2020)

Each compound was assayed against T1, F508del (Homo sapiens, UniProt P13569, DEL508-508) (assay: Protocol 2: FRET membrane potential optical assay (VIPR), identification of correction compounds). Conditions: Table 3; compounds of Table 1 as modulators of CFTR activity; protocol not stated.
T1 construct: expressed in transfected cells
Format: cell-based
Summary of the method: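 Correction of the F508del trafficking defect is scored as forskolin (10 μM)/genistein (20 μM)-stimulated Cl^− efflux in NIH3T3 mouse fibroblasts after a 16 hr, 37° C. compound exposure. Depolarization was followed optically using voltage-sensing FRET dyes.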

T1 sequence (P13569 with tags, fused parts or gaps DEL508-508): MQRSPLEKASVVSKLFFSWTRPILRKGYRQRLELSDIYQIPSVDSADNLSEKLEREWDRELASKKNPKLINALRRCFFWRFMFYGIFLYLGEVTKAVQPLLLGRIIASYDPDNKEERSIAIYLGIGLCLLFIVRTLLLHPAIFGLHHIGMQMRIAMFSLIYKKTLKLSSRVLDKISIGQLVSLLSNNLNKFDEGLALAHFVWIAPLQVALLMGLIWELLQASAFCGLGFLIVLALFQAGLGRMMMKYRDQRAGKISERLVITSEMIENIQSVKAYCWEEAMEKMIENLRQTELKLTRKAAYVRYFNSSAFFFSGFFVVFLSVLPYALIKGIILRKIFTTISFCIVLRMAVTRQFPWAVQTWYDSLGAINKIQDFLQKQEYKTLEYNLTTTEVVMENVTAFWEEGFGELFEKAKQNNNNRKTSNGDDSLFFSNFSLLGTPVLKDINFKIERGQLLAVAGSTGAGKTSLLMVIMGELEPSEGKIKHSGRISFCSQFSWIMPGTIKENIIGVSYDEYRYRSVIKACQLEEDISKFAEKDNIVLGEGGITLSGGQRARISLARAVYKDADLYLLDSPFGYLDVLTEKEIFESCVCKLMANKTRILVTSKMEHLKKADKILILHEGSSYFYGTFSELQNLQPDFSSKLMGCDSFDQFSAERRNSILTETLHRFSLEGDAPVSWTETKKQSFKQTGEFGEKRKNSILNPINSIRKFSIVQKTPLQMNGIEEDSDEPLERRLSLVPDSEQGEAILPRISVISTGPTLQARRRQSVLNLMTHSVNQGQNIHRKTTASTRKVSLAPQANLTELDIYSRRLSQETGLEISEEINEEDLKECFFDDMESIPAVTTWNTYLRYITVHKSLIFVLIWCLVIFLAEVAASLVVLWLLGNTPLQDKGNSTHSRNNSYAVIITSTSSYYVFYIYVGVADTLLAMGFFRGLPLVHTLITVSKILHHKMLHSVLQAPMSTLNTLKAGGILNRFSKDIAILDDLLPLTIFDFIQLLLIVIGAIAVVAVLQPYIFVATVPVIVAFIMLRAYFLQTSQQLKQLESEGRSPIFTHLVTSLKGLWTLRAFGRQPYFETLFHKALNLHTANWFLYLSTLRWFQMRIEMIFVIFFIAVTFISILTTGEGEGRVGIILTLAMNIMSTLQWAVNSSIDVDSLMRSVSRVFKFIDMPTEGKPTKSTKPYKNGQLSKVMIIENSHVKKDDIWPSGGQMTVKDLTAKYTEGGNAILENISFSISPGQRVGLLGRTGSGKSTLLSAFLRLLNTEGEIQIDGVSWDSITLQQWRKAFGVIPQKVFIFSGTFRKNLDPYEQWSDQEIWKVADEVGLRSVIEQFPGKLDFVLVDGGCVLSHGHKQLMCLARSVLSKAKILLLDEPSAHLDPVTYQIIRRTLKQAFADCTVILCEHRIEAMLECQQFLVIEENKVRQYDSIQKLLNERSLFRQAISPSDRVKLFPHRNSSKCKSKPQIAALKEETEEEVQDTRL

| SMILES | EC30 |
| --- | --- |
| Cc1cc(C)c(Cn2c(C(=O)NS(=O)(=O)c3ccccc3)cc3c(C)cccc32)c(C)c1 [Compound 143, N-(benzenesulfonyl)-4-methyl-1-[(2,4,6-trimethylphenyl)methyl]indole-2-carboxamide] | +++ (“+++” means <3 uM) |
| Cc1cc(C)c(Cn2c(C(=O)NS(=O)(=O)c3cccc(N)c3)cc3c(C)cccc32)c(C)c1 [Compound 144, N-(3-aminophenyl)sulfonyl-4-methyl-1-[(2,4,6-trimethylphenyl)methyl]indole-2-carboxamide] | +++ (“+++” means <3 uM) |
| CC(C)(C)c1cc(C(=O)NS(=O)(=O)c2ccccc2)n(Cc2c(Cl)cc(Cl)cc2Cl)n1 [Compound 145, N-(benzenesulfonyl)-5-tert-butyl-2-[(2,4,6-trichlorophenyl)methyl]pyrazole-3-carboxamide] | +++ (“+++” means <3 uM) |
| Cc1cc(C)c(Oc2nc(C(C)(C)C)ccc2C(=O)NS(=O)(=O)c2cccc3c2ccn3C)c(C)c1 [Compound 146, 6-tert-butyl-N-(1-methylindol-4-yl)sulfonyl-2-(2,4,6-trimethylphenoxy)pyridine-3-carboxamide] | +++ (“+++” means <3 uM) |
| CC(C)c1ccccc1Oc1nc(C(C)(C)C)ccc1C(=O)NS(=O)(=O)c1ccccc1 [Compound 147, N-(benzenesulfonyl)-6-tert-butyl-2-(2-isopropylphenoxy)pyridine-3-carboxamide] | +++ (“+++” means <3 uM) |
| Cc1cccc(C)c1Cn1nc(-c2ccccc2OC(F)(F)F)cc1C(=O)NS(=O)(=O)c1ccccc1 [Compound 149, N-(benzenesulfonyl)-2-[(2,6-dimethylphenyl)methyl]-5-[2-(trifluoromethoxy)phenyl]pyrazole-3-carboxamide] | +++ (“+++” means <3 uM) |
| Cc1cccc(C)c1Cn1nc(C(C)(C)C)cc1C(=O)NS(=O)(=O)c1ccc(F)c(N)c1 [Compound 150, N-(3-amino-4-fluoro-phenyl)sulfonyl-5-tert-butyl-2-[(2,6-dimethylphenyl)methyl]pyrazole-3-carboxamide] | +++ (“+++” means <3 uM) |
| Cc1nc(-c2ccc(-c3cc(C(=O)NS(=O)(=O)c4ccccc4)n(Cc4c(C)cccc4C)n3)s2)no1 [Compound 151, N-(benzenesulfonyl)-2-[(2,6-dimethylphenyl)methyl]-5-[5-(5-methyl-1,2,4-oxadiazol-3-yl)-2-thienyl]pyrazole-3-carboxamide] | +++ (“+++” means <3 uM) |
| CCOc1ccccc1-c1cc(C(=O)NS(=O)(=O)c2ccccc2)n(Cc2c(C)cccc2C)n1 [Compound 152, N-(benzenesulfonyl)-2-[(2,6-dimethylphenyl)methyl]-5-(2-ethoxyphenyl)pyrazole-3-carboxamide] | +++ (“+++” means <3 uM) |
| Cc1cc(C)c(Cn2c(C(=O)NS(=O)(=O)c3cccc(N)c3)cc3cc(F)ccc32)c(C)c1 [Compound 153, N-(3-aminophenyl)sulfonyl-5-fluoro-1-[(2,4,6-trimethylphenyl)methyl]indole-2-carboxamide] | +++ (“+++” means <3 uM) |
| CC(C)(C)c1ccc(C(=O)NS(=O)(=O)c2ccccc2)c(OCc2ccccn2)n1 [Compound 154, N-(benzenesulfonyl)-6-tert-butyl-2-(2-pyridylmethoxy)pyridine-3-carboxamide] | +++ (“+++” means <3 uM) |
| COc1cc(F)ccc1-c1cc(C(=O)NS(=O)(=O)c2ccccc2)n(Cc2c(C)cccc2C)n1 [Compound 155, N-(benzenesulfonyl)-2-[(2,6-dimethylphenyl)methyl]-5-(4-fluoro-2-methoxy-phenyl)pyrazole-3-carboxamide] | ++ (“++” means between 3 uM and 10 uM) |
| Cc1cc(C(C)(C)C)cc(C)c1Cn1nc(C(C)(C)C)cc1C(=O)NS(=O)(=O)c1cccc(N)c1 [Compound 156, N-(3-aminophenyl)sulfonyl-5-tert-butyl-2-[(4-tert-butyl-2,6-dimethyl-phenyl)methyl]pyrazole-3-carboxamide] | +++ (“+++” means <3 uM) |
| COc1ccccc1CCn1nc(C(C)(C)C)cc1C(=O)NS(=O)(=O)c1ccccc1 [Compound 157, N-(benzenesulfonyl)-5-tert-butyl-2-[2-(2-methoxyphenyl)ethyl]pyrazole-3-carboxamide] | ++ (“++” means between 3 uM and 10 uM) |
| Cc1cc(C)c(Cn2nc(C3(C)CC3)cc2C(=O)NS(=O)(=O)c2cccc(N)c2)c(C)c1 [Compound 158, N-(3-aminophenyl)sulfonyl-5-(1-methylcyclopropyl)-2-[(2,4,6-trimethylphenyl)methyl]pyrazole-3-carboxamide] | +++ (“+++” means <3 uM) |
| Cc1cccc(C)c1Cn1nc(-c2ccc(OC(F)(F)F)cc2)cc1C(=O)NS(=O)(=O)c1ccccc1 [Compound 159, N-(benzenesulfonyl)-2-[(2,6-dimethylphenyl)methyl]-5-[4-(trifluoromethoxy)phenyl]pyrazole-3-carboxamide] | +++ (“+++” means <3 uM) |
| CC(c1ccccc1)n1c(C(=O)NS(=O)(=O)c2ccccc2)cc2c(F)cccc21 (centres unmarked) [Compound 160, N-(benzenesulfonyl)-4-fluoro-1-(1-phenylethyl)indole-2-carboxamide] | +++ (“+++” means <3 uM) |
| CCOc1ccc(-c2ccc(C(=O)NS(=O)(=O)c3cccc(N)n3)c(Oc3c(C)cc(C)cc3C)n2)cc1F [Compound 161, N-[(6-amino-2-pyridyl)sulfonyl]-6-(4-ethoxy-3-fluoro-phenyl)-2-(2,4,6-trimethylphenoxy)pyridine-3-carboxamide] | +++ (“+++” means <3 uM) |
| CCN(CC)c1ccc(-c2cc(C(=O)NS(=O)(=O)c3ccccc3)n(Cc3c(C)cccc3C)n2)cc1 [Compound 162, N-(benzenesulfonyl)-5-[4-(diethylamino)phenyl]-2-[(2,6-dimethylphenyl)methyl]pyrazole-3-carboxamide] | +++ (“+++” means <3 uM) |
| Cc1cc(C)c(Oc2nc(-c3cc(F)cc(OCC(C)C)c3)ccc2C(=O)NS(=O)(=O)c2ccc[nH]c2=O)c(C)c1 [Compound 169, 6-(3-fluoro-5-isobutoxy-phenyl)-N-[(2-oxo-1H-pyridin-3-yl)sulfonyl]-2-(2,4,6-trimethylphenoxy)pyridine-3-carboxamide] | +++ (“+++” means <3 uM) |
| CC(C)COc1cc(F)cc(-c2ccc(C(=O)NS(=O)(=O)c3cccc(N)n3)c(N3[C@H](C)CC[C@@H]3C)n2)c1 [Compound 171, N-[(6-amino-2-pyridyl)sulfonyl]-2-[(2S,5R)-2,5-dimethylpyrrolidin-1-yl]-6-(3-fluoro-5-isobutoxy-phenyl)pyridine-3-carboxamide] | +++ (“+++” means <3 uM) |

The next lines start with the values.

| EC30 | SMILES |
| --- | --- |
| +++ (“+++” means <3 uM) | Cc1cc(C)c(Oc2nc(C(C)(C)C)ccc2C(=O)NS(=O)(=O)c2cncc(N)c2)c(C)c1 [Compound 163, N-[(5-amino-3-pyridyl)sulfonyl]-6-tert-butyl-2-(2,4,6-trimethylphenoxy)pyridine-3-carboxamide] |
| +++ (“+++” means <3 uM) | Cc1cc(C)c(Oc2nc(-c3ccc(C(C)C)cc3)ccc2C(=O)NS(=O)(=O)c2cccc(N)n2)c(C)c1 [Compound 164, N-[(6-amino-2-pyridyl)sulfonyl]-6-(4-isopropylphenyl)-2-(2,4,6-trimethylphenoxy)pyridine-3-carboxamide] |
| +++ (“+++” means <3 uM) | CCC(c1ccccc1)n1nc(C(C)(C)C)cc1C(=O)NS(=O)(=O)c1cccc(N)c1 (centres unmarked) [Compound 165, N-(3-aminophenyl)sulfonyl-5-tert-butyl-2-(1-phenylpropyl)pyrazole-3-carboxamide] |
| +++ (“+++” means <3 uM) | Cc1cccc(C)c1Cn1nc(-c2cccc(F)c2)cc1C(=O)NS(=O)(=O)c1ccccc1 [Compound 166, N-(benzenesulfonyl)-2-[(2,6-dimethylphenyl)methyl]-5-(3-fluorophenyl)pyrazole-3-carboxamide] |
| ++ (“++” means between 3 uM and 10 uM) | Cc1cc(C)c(Cn2nc(CC(C)C)cc2C(=O)NS(=O)(=O)c2cccc(N)c2)c(C)c1 [Compound 167, N-(3-aminophenyl)sulfonyl-5-isobutyl-2-[(2,4,6-trimethylphenyl)methyl]pyrazole-3-carboxamide] |
| +++ (“+++” means <3 uM) | COc1cccc2c1cc(C(=O)NS(=O)(=O)c1cccc(N)c1)n2Cc1c(C)cccc1C [Compound 168, N-(3-aminophenyl)sulfonyl-1-[(2,6-dimethylphenyl)methyl]-4-methoxy-indole-2-carboxamide] |
| +++ (“+++” means <3 uM) | Cc1cccc(C)c1Cn1nc(C(C)(C)C)cc1C(=O)NS(=O)(=O)c1c(F)cccc1F [Compound 170, 5-tert-butyl-N-(2,6-difluorophenyl)sulfonyl-2-[(2,6-dimethylphenyl)methyl]pyrazole-3-carboxamide] |
| +++ (“+++” means <3 uM) | Cc1cc(C)c(Oc2nc(C3CCC(C)CC3)ccc2C(=O)NS(=O)(=O)c2cccc(N)n2)c(C)c1 (centres unmarked) [Compound 172, N-[(6-amino-2-pyridyl)sulfonyl]-6-(4-methylcyclohexyl)-2-(2,4,6-trimethylphenoxy)pyridine-3-carboxamide] |
| ++ (“++” means between 3 uM and 10 uM) | Cc1cc(C)c(Cn2nc(C(C)(C)C)cc2C(=O)NS(=O)(=O)c2cccc(N)n2)c(C)c1 [Compound 173, N-[(6-amino-2-pyridyl)sulfonyl]-5-tert-butyl-2-[(2,4,6-trimethylphenyl)methyl]pyrazole-3-carboxamide] |
| ++ (“++” means between 3 uM and 10 uM) | COc1cccc(S(=O)(=O)NC(=O)C2c3ccccc3CN2Cc2c(C)cc(C)cc2C)n1 (centres unmarked) [Compound 174, N-[(6-methoxy-2-pyridyl)sulfonyl]-2-[(2,4,6-trimethylphenyl)methyl]isoindoline-1-carboxamide] |
| ++ (“++” means between 3 uM and 10 uM) | Cc1cc(C)c(Oc2nc(C(F)(F)F)ccc2C(=O)NS(=O)(=O)c2cccc(N)n2)c(C)c1 [Compound 175, N-[(6-amino-2-pyridyl)sulfonyl]-6-(trifluoromethyl)-2-(2,4,6-trimethylphenoxy)pyridine-3-carboxamide] |
